# Source: US10457710B2, “Antimicrobial peptides, their variants and uses” (priority 2015, dated 2019)
# Where a SMILES comes first, the peptide text is derived from it. [ ]: non-standard residue; d: D form.
# Assays:
# Format in all cases: cell-based
# [1] = system: clinical strains of E. cloacae; test: MIC, microdilution, clinical strains; conditions: 0.02% BSA, 0.2% acetic acid
# Description: (§1) Minimum inhibition concetrations (MICs) were determined against Escherichia coli (ATCC 25922), Staphylococcus aureus (ATCC 25923), Klebsiella pneumoniae (ATCC 10031) and Pseudomonas aeruginosa (ATCC 27853). Also clinical strains of E. coli, K. pneumoniae, E. cloacae, P. aeruginosa, Serratia marcescens, Proteus mirabilis, S. pneumoniae, Acinetobacter baumannii, A. johnsonii and S. aureus were used for MICs assays. Additionally, clinical strains of yeast including Candida albicans, C. glabrata, C. parapsilosis and C. quillermondiae were used. The susceptibility of these microorganisms to Chain peptides were determined using micro broth dilution assay. Colonies of the respective microorganism from Muller Hinton (MH) agar plates incubated overnight were suspended in MH broth media and final concentration of microorganism was adjusted to 5.0×10^5 cfu/ml. An aliquot of 10 μl of each Chain peptide, or gentamicin, tetracycline as reference antibiotics were added in differing concentrations along with 90 μl of bacterial suspension to 96 well polypropylene plates and incubated at 37° C. for 20 to 24 hours. Concentrations of Chain peptides and reference antibiotics ranged from 0.125 to 128 μg/ml and the MICs were recorded as the lowest concentration with no visual growth of bacteria. Similarly, antifungal MICs were tested in Potato dextrose broth.
# (§2) Clinical strains of yeasts including Candida albicans, C. glabrata, C. parapsilosis and C. quillermondiae were also tested with the 12 Chain peptides. The minimum inhibitory concentration (MICs) varied between these peptides and are presented in Tables 4a, 4b, 4c and 5a, 5b, 5c. Peptides Chain 105, 201 and 308 are broad spectrum antimicrobials with MICs between 0.5-32 μg/ml against all the bacteria and yeasts tested, except Serratia marcescens and Proteus mirabilis, against which the MICs were between 64-128 μg/ml. Peptide Chain 306 has narrow spectrum activity against E. coli at 1 μg/ml and for the rest of the bacterial strains at >32 μg/ml (FIG. 10c).
# [2] = system: clinical strains of E. coli; test: MIC, microdilution, clinical strains; conditions: microdilution, Muller Hinton broth-cation adjusted, 0.02% BSA, 0.2% acetic acid
# Description: as §1, §2
# [3] = system: clinical strains of K. pneumoniae; test: MIC, microdilution, clinical strains; conditions: 0.02% BSA, 0.2% acetic acid
# Description: as §1, §2
# [4] = system: clinical strains of P. aeruginosa; test: MIC, microdilution, clinical strains; conditions: 0.02% BSA, 0.2% acetic acid
# Description: as §1, §2
# [5] = system: clinical strains of Proteus mirabilis; test: MIC, microdilution, clinical strains; conditions: 0.02% BSA, 0.2% acetic acid
# Description: as §1, §2
# [6] = system: clinical strains of S. aureus; test: MIC, microdilution, clinical strains; conditions: 0.02% BSA, 0.2% acetic acid
# Description: as §1, §2
# [7] = system: clinical strains of S. pneumoniae; test: MIC, microdilution, clinical strains; conditions: 0.02% BSA, 0.2% acetic acid
# Description: as §1, §2
# [8] = system: clinical strains of Serratia marcescens; test: MIC, microdilution, clinical strains; conditions: 0.02% BSA, 0.2% acetic acid
# Description: as §1, §2
# C. glabrata = test: MIC, clinical yeast strains
# Description: as §1, §2
# C. parapsilosis = test: MIC, clinical yeast strains
# Description: as §1, §2
# Candida albicans = test: MIC, clinical yeast strains
# Description: as §1, §2
# C. quillermondiae = test: MIC, clinical yeast strains; design: Minimum inhibitory concentration: unit: μg/ml; conditions: C. quillermondiae clinical yeast strain 1
# Description: as §1, §2
# [9] = Enterobacter cloacae strain 1, Muller Hinton broth-cation adjusted
# [10] = Enterobacter cloacae strain 2, Muller Hinton broth-cation adjusted
# [11] = Enterobacter cloacae strain 3, Muller Hinton broth-cation adjusted
# [12] = Enterobacter cloacae strain 4, Muller Hinton broth-cation adjusted
# [13] = Enterobacter cloacae strain 5, Muller Hinton broth-cation adjusted
# [14] = Klebsiella pneumoniae strain 1, Muller Hinton broth-cation adjusted
# [15] = Klebsiella pneumoniae strain 2, Muller Hinton broth-cation adjusted
# [16] = Klebsiella pneumoniae strain 3, Muller Hinton broth-cation adjusted
# [17] = Klebsiella pneumoniae strain 4, Muller Hinton broth-cation adjusted
# [18] = Klebsiella pneumoniae strain 5, Muller Hinton broth-cation adjusted
# [19] = Pseudomonas aeruginosa strain 1, Muller Hinton broth-cation adjusted
# [20] = Pseudomonas aeruginosa strain 2, Muller Hinton broth-cation adjusted
# [21] = Pseudomonas aeruginosa strain 3, Muller Hinton broth-cation adjusted
# [22] = Pseudomonas aeruginosa strain 4, Muller Hinton broth-cation adjusted
# [23] = Pseudomonas aeruginosa strain 5, Muller Hinton broth-cation adjusted
# [24] = Proteus mirabilis strain 1, Muller Hinton broth-cation adjusted
# [25] = Proteus mirabilis strain 2, Muller Hinton broth-cation adjusted
# [26] = Proteus mirabilis strain 3, Muller Hinton broth-cation adjusted
# [27] = Proteus mirabilis strain 4, Muller Hinton broth-cation adjusted
# [28] = Proteus mirabilis strain 5, Muller Hinton broth-cation adjusted
# [29] = Staphylococcus aureus strain 1, Muller Hinton broth-cation adjusted
# [30] = Staphylococcus aureus strain 2, Muller Hinton broth-cation adjusted
# [31] = Staphylococcus aureus strain 3, Muller Hinton broth-cation adjusted
# [32] = Staphylococcus aureus strain 4, Muller Hinton broth-cation adjusted
# [33] = Staphylococcus aureus strain 5, Muller Hinton broth-cation adjusted
# [34] = Streptococcus pneumoniae strain 1, Muller Hinton broth-cation adjusted
# [35] = Streptococcus pneumoniae strain 2, Muller Hinton broth-cation adjusted
# [36] = Streptococcus pneumoniae strain 3, Muller Hinton broth-cation adjusted
# [37] = Streptococcus pneumoniae strain 4, Muller Hinton broth-cation adjusted
# [38] = Streptococcus pneumoniae strain 5, Muller Hinton broth-cation adjusted
# [39] = Serratia marcescens strain 1, Muller Hinton broth-cation adjusted
# [40] = Serratia marcescens strain 2, Muller Hinton broth-cation adjusted
# [41] = Serratia marcescens strain 3, Muller Hinton broth-cation adjusted
# [42] = Serratia marcescens strain 4, Muller Hinton broth-cation adjusted
# [43] = Serratia marcescens strain 5, Muller Hinton broth-cation adjusted
# [44] = C. glabrata clinical yeast strain 1
# [45] = C. glabrata clinical yeast strain 2
# [46] = C. glabrata clinical yeast strain 3
# [47] = C. glabrata clinical yeast strain 4
# [48] = C. parapsilosis clinical yeast strain 1
# [49] = C. parapsilosis clinical yeast strain 2
# [50] = C. parapsilosis clinical yeast strain 3
# [51] = C. parapsilosis clinical yeast strain 4
# [52] = Candida albicans clinical yeast strain 1
# [53] = Candida albicans clinical yeast strain 2
# [54] = Candida albicans clinical yeast strain 3
# [55] = Candida albicans clinical yeast strain 4
# [56] = Candida albicans clinical yeast strain 5
structure (smiles),measurement,setting,value
CC(C)C[C@@H](NC(=O)[C@H](N)CCCNC(=N)N)C(=O)N[C@H](CCCCN)C(=O)N[C@H](Cc1c[nH]c2ccccc12)C(=O)N[C@H](Cc1ccccc1)C(=O)N[C@H](Cc1c[nH]c2ccccc12)C(=O)N[C@H](CC(C)C)C(=O)N[C@H](Cc1ccccc1)C(=O)N[C@H](CCCNC(=N)N)C(=O)N[C@H](CCCCN)C(=O)N[C@H](CCCNC(=N)N)C(=O)O [Chain307D] (H-[dR][dL][dK][dW][dF][dW][dL][dF][dR][dK][dR]-OH),Minimum inhibitory concentration,[1]; [9],4
same,Minimum inhibitory concentration,[1]; [10],8
same,Minimum inhibitory concentration,[1]; [11],4
same,Minimum inhibitory concentration,[1]; [12],4
same,Minimum inhibitory concentration,[1]; [13],4
same,Minimum inhibitory concentration,[2]; Escherichia coli strain 1,4
same,Minimum inhibitory concentration,[2]; Escherichia coli strain 2,4
same,Minimum inhibitory concentration,[2]; Escherichia coli strain 3,4
same,Minimum inhibitory concentration,[2]; Escherichia coli strain 4,2
same,Minimum inhibitory concentration,[2]; Escherichia coli strain 5,4
same,Minimum inhibitory concentration,[3]; [14],8
same,Minimum inhibitory concentration,[3]; [15],8
same,Minimum inhibitory concentration,[3]; [16],16
same,Minimum inhibitory concentration,[3]; [17],16
same,Minimum inhibitory concentration,[3]; [18],4
same,Minimum inhibitory concentration,[4]; [19],16
same,Minimum inhibitory concentration,[4]; [20],16
same,Minimum inhibitory concentration,[4]; [21],16
same,Minimum inhibitory concentration,[4]; [22],8
same,Minimum inhibitory concentration,[4]; [23],8
same,Minimum inhibitory concentration,[5]; [24],>128
same,Minimum inhibitory concentration,[5]; [25],128
same,Minimum inhibitory concentration,[5]; [26],128
same,Minimum inhibitory concentration,[5]; [27],>128
same,Minimum inhibitory concentration,[5]; [28],>128
same,Minimum inhibitory concentration,[6]; [29],2
same,Minimum inhibitory concentration,[6]; [30],2
same,Minimum inhibitory concentration,[6]; [31],2
same,Minimum inhibitory concentration,[6]; [32],2
same,Minimum inhibitory concentration,[6]; [33],2
same,Minimum inhibitory concentration,[7]; [34],4
same,Minimum inhibitory concentration,[7]; [35],4
same,Minimum inhibitory concentration,[7]; [36],4
same,Minimum inhibitory concentration,[7]; [37],2
same,Minimum inhibitory concentration,[7]; [38],2
same,Minimum inhibitory concentration,[8]; [39],>128
same,Minimum inhibitory concentration,[8]; [40],>128
same,Minimum inhibitory concentration,[8]; [41],128
same,Minimum inhibitory concentration,[8]; [42],>128
same,Minimum inhibitory concentration,[8]; [43],>128
same,Minimum inhibitory concentration,C. glabrata; [44],8
same,Minimum inhibitory concentration,C. glabrata; [45],16
same,Minimum inhibitory concentration,C. glabrata; [46],8
same,Minimum inhibitory concentration,C. glabrata; [47],16
same,Minimum inhibitory concentration,C. parapsilosis; [48],16
same,Minimum inhibitory concentration,C. parapsilosis; [49],8
same,Minimum inhibitory concentration,C. parapsilosis; [50],8
same,Minimum inhibitory concentration,C. parapsilosis; [51],8
same,Minimum inhibitory concentration,Candida albicans; [52],16
same,Minimum inhibitory concentration,Candida albicans; [53],16
same,Minimum inhibitory concentration,Candida albicans; [54],16
same,Minimum inhibitory concentration,Candida albicans; [55],16
same,Minimum inhibitory concentration,Candida albicans; [56],16
same,Minimum inhibitory concentration,C. quillermondiae,4
CC[C@@H](C)[C@@H](N)C(=O)N[C@H](Cc1c[nH]c2ccccc12)C(=O)N[C@H](CCCCN)C(=O)N[C@H](CCCNC(=N)N)C(=O)N[C@H](Cc1ccccc1)C(=O)N[C@H](CCCNC(=N)N)C(=O)N[C@H](CC(C)C)C(=O)N[C@H](Cc1ccccc1)C(=O)N[C@H](CCCCN)C(=O)N[C@H](CCCCN)C(=O)N[C@H](Cc1c[nH]c2ccccc12)C(=O)O [Chain304D] (H-[dI][dW][dK][dR][dF][dR][dL][dF][dK][dK][dW]-OH),Minimum inhibitory concentration,[1]; [9],64
same,Minimum inhibitory concentration,[1]; [10],64
same,Minimum inhibitory concentration,[1]; [11],128
same,Minimum inhibitory concentration,[1]; [12],128
same,Minimum inhibitory concentration,[1]; [13],32
same,Minimum inhibitory concentration,[2]; Escherichia coli strain 1,1
same,Minimum inhibitory concentration,[2]; Escherichia coli strain 2,16
same,Minimum inhibitory concentration,[2]; Escherichia coli strain 3,16
same,Minimum inhibitory concentration,[2]; Escherichia coli strain 4,32
same,Minimum inhibitory concentration,[2]; Escherichia coli strain 5,32
same,Minimum inhibitory concentration,[3]; [14],>128
same,Minimum inhibitory concentration,[3]; [15],>128
same,Minimum inhibitory concentration,[3]; [16],>128
same,Minimum inhibitory concentration,[3]; [17],>128
same,Minimum inhibitory concentration,[3]; [18],64
same,Minimum inhibitory concentration,[4]; [19],32
same,Minimum inhibitory concentration,[4]; [20],64
same,Minimum inhibitory concentration,[4]; [21],64
same,Minimum inhibitory concentration,[4]; [22],64
same,Minimum inhibitory concentration,[4]; [23],16
same,Minimum inhibitory concentration,[5]; [24],>128
same,Minimum inhibitory concentration,[5]; [25],>128
same,Minimum inhibitory concentration,[5]; [26],>128
same,Minimum inhibitory concentration,[5]; [27],>128
same,Minimum inhibitory concentration,[5]; [28],>128
same,Minimum inhibitory concentration,[6]; [29],32
same,Minimum inhibitory concentration,[6]; [30],32
same,Minimum inhibitory concentration,[6]; [31],16
same,Minimum inhibitory concentration,[6]; [32],16
same,Minimum inhibitory concentration,[6]; [33],16
same,Minimum inhibitory concentration,[7]; [34],128
same,Minimum inhibitory concentration,[7]; [35],128
same,Minimum inhibitory concentration,[7]; [36],128
same,Minimum inhibitory concentration,[7]; [37],128
same,Minimum inhibitory concentration,[7]; [38],64
same,Minimum inhibitory concentration,[8]; [39],>128
same,Minimum inhibitory concentration,[8]; [40],>128
same,Minimum inhibitory concentration,[8]; [41],>128
same,Minimum inhibitory concentration,[8]; [42],>128
same,Minimum inhibitory concentration,[8]; [43],>128
same,Minimum inhibitory concentration,C. glabrata; [44],16
same,Minimum inhibitory concentration,C. glabrata; [45],16
same,Minimum inhibitory concentration,C. glabrata; [46],8
same,Minimum inhibitory concentration,C. glabrata; [47],64
same,Minimum inhibitory concentration,C. parapsilosis; [48],64
same,Minimum inhibitory concentration,C. parapsilosis; [49],64
same,Minimum inhibitory concentration,C. parapsilosis; [50],32
same,Minimum inhibitory concentration,C. parapsilosis; [51],16
same,Minimum inhibitory concentration,Candida albicans; [52],16
same,Minimum inhibitory concentration,Candida albicans; [53],16
same,Minimum inhibitory concentration,Candida albicans; [54],16
same,Minimum inhibitory concentration,Candida albicans; [55],16
same,Minimum inhibitory concentration,Candida albicans; [56],32
same,Minimum inhibitory concentration,C. quillermondiae,16
